One series has as its system HIV-1 Y181C. Description: Antiviral activity against HIV-1 mutant Y181C in MT-4 cells. Particulars: Human immunodeficiency virus 1, MT4, read-out: EC50 Y181C. Format: cell-based.
A further series deals with HIV-1 E138K. The series is described as follows: Antiviral activity against HIV-1 mutant E138K in MT-4 cells. Particulars: Human immunodeficiency virus 1, MT4, read-out: EC50 E138K. Format: cell-based.
The next series has as its system HIV-1 K103N. The series is described as follows: Antiviral activity against HIV-1 mutant K103N in MT-4 cells. It counts as cell-based. The note with it: Human immunodeficiency virus 1, MT4, read-out: EC50 K103N.
In series [1] the test system is HIV-1 K103N + Y181C (RES056). The series is described as follows: Antiviral activity against HIV-1 double mutant K103N + Y181C (RES056) in MT-4 cells. Format: cell-based. Particulars: Human immunodeficiency virus 1, MT4, read-out: EC50 K103N + Y181C.
A further series deals with HIV-1 F227L + V106A. Description: microbe, parasite or virus in culture. Format: cell-based. Particulars: Human immunodeficiency virus 1, MT4, read-out: EC50 F227L + V106A.
In a further series the target is WT HIV-1 RT (Human immunodeficiency virus type 1 group M subtype B, UniProt P03366). The series is described as follows: Inhibition of WT HIV-1 RT polymerase activity.
The next series relates to HIV-1 Y188L. The series is described as follows: Antiviral activity against HIV-1 mutant Y188L in MT-4 cells. It counts as cell-based. The note with it: Human immunodeficiency virus 1, MT4, read-out: EC50 Y188L.
The subject of the next series is HIV-1 L100I. Description: Antiviral activity against HIV-1 mutant L100I in MT-4 cells. It counts as cell-based. The note with it: Human immunodeficiency virus 1, MT4, read-out: EC50 L100I.
The subject of the next series is HIV-1 (IIIB). Description: microbe, parasite or virus in culture. It counts as cell-based. The note with it: for EC50: Human immunodeficiency virus 1, IIIB, MT4, WT HIV-1, protection of MT-4 cells against HIV-induced cytopathogenicity, mean ± SD, n ≥ 3; for SI (IIIB): selectivity index, ratio CC50/EC50. From the text:
(§1) Inspired by our previous research on heteroaromatic-biphenyl-DAPYs[15], the 4-cyanophenyl group on the biphenyl moiety was replaced with a privileged 4-pyridyl group for further evaluation.
(Protection from cytopathic effect is a common read-out in antiviral testing.)

A further series is described as follows: in vitro. Particulars: human, CC50.
Source text: as §1

Experimental for WT HIV-1 RT: The anti-HIV-1 activity of A1–A24 and B1–B22 at the cellular or enzyme level were evaluated following our previously reported method[15].

As to `Cc1cc(-c2ccc(C#N)cc2)ccc1Nc1nc(Nc2ccc(C#N)cc2)ncc1F` [A9, 4′-((2-((4-Cyanophenyl)amino)-5-fluoropyrimidin-4-yl)amino)-3′-methyl-[1,1′-biphenyl]-4-carbonitrile], the EC50 – broadly, the concentration that produces a half-maximal response – in the series with HIV-1 Y181C came to 9.3 ± 0.7 nM; with HIV-1 E138K, 10 ± 1.9 nM; with HIV-1 K103N, 7.1 ± 1.9 nM; in [1], 24900 nM; in the series on HIV-1 F227L + V106A, 37700 nM; in the series with HIV-1 Y188L it was 1620 ± 382 nM. The EC50 with HIV-1 L100I was determined as 17 ± 6.7 nM. Also, the midpoint of inhibition at WT HIV-1 RT, the IC50, lay at 36 ± 4.8 nM.

As for `Cc1cc(-c2ccncc2)cc(C)c1Nc1nc(Nc2ccc(C#N)cc2)ncc1F` [A24, 4-((4-((2,6-Dimethyl-4-(pyridin-4-yl)phenyl)amino)-5-fluoropyrimidin-2-yl)amino)benzonitrile], the 50% effective concentration (EC50) was found to be 9.3 ± 5.6 nM with HIV-1 Y181C; 8.3 ± 5.4 nM with HIV-1 E138K; 1.9 ± 0.5 nM in the series on HIV-1 K103N; 63 ± 12 nM in [1]; 244 ± 146 nM with HIV-1 F227L + V106A; 90 ± 27 nM in the series with HIV-1 Y188L. The EC50 in the series with HIV-1 L100I was determined as 4.1 ± 3.7 nM. Further, at WT HIV-1 RT, it took 39 ± 2.4 nM to reach half-maximal inhibition (IC50).

Consider `N#Cc1ccc(Nc2ncc(Cl)c(Nc3ccc(-c4ccc(C#N)cc4)cc3F)n2)cc1` [B6, 4′-((5-Chloro-2-((4-cyanophenyl)amino)pyrimidin-4-yl)amino)-3′-fluoro-[1,1′-biphenyl]-4-carbonitrile], for which, in the series with HIV-1 (IIIB), the EC50 worked out at 12 ± 2.7 nM and the “SI (IIIB)” value was more than 3911. This compound also had a CC50 in the series “in vitro” of more than 45000 nM.

Regarding `N#Cc1ccc(Nc2ncc(Cl)c(Nc3ccc(-c4ccc(C#N)cc4)cc3Cl)n2)cc1` [B7, 3′-Chloro-4′-((5-chloro-2-((4-cyanophenyl)amino)pyrimidin-4-yl)amino)-[1,1′-biphenyl]-4-carbonitrile], in the series with HIV-1 (IIIB), the half-maximal effective concentration (EC50) was 46 ± 13 nM and the “SI (IIIB)” value is reported as more than 6026. For the same compound, the CC50 in “in vitro” is more than 273000 nM.

Regarding `Cc1cc(-c2ccc(C#N)cc2)ccc1Nc1nc(Nc2ccc(C#N)cc2)ncc1Cl` [B8, 4′-((5-Chloro-2-((4-cyanophenyl)amino)pyrimidin-4-yl)amino)-3′-methyl-[1,1′-biphenyl]-4-carbonitrile], in the series with HIV-1 (IIIB), the half-maximal effective concentration (EC50) came out at 8.2 ± 1.6 nM and the “SI (IIIB)” value is more than 5556. The compound further came in with a CC50 in “in vitro” of more than 46000 nM.

In the case of `COc1cc(-c2ccc(C#N)cc2)ccc1Nc1nc(Nc2ccc(C#N)cc2)ncc1Cl` [B9, 4′-((5-Chloro-2-((4-cyanophenyl)amino)pyrimidin-4-yl)amino)-3′-methoxy-[1,1′-biphenyl]-4-carbonitrile], in the series with HIV-1 (IIIB), the EC50 turned out to be 104 ± 68 nM and the “SI (IIIB)” value stood at 2261. For the same compound, the CC50 in the series “in vitro” came out at 236000 ± 24000 nM.

For the compound `N#Cc1ccc(Nc2ncc(Cl)c(Nc3c(F)cc(-c4ccc(C#N)cc4)cc3F)n2)cc1` [B10, 4′-((5-Chloro-2-((4-cyanophenyl)amino)pyrimidin-4-yl)amino)-3′,5′-difluoro-[1,1′-biphenyl]-4-carbonitrile], the EC50 with HIV-1 Y181C came to 11 ± 1.5 nM; in the series with HIV-1 E138K it was 5.7 ± 2.8 nM; in the series with HIV-1 K103N, 5 ± 2.4 nM; in [1], 676 ± 349 nM; in the series on HIV-1 F227L + V106A it was 959 ± 327 nM; with HIV-1 Y188L, 187 ± 52 nM. Moreover, the EC50 in the series with HIV-1 L100I was found to be 17 ± 8.1 nM. For the same compound, the concentration for half-maximal inhibition (IC50) (in general, the point on the concentration scale where inhibition reaches its midpoint) at WT HIV-1 RT is 31 ± 2.2 nM.

With `N#Cc1ccc(Nc2ncc(Cl)c(Oc3ccc(-c4ccncc4)cc3F)n2)cc1` [B12, 4-((5-Chloro-4-(2-fluoro-4-(pyridin-4-yl)phenoxy)pyrimidin-2-yl)amino)benzonitrile], in the series on HIV-1 (IIIB), the EC50 was found to be 7.7 ± 1.9 nM and the “SI (IIIB)” value is on record as more than 6173. Further, the CC50 in the series “in vitro” was more than 48000 nM.

For the compound `N#Cc1ccc(Nc2ncc(Cl)c(Oc3ccc(-c4ccncc4)cc3Cl)n2)cc1` [B13, 4-((5-Chloro-4-(2-chloro-4-(pyridin-4-yl)phenoxy)pyrimidin-2-yl)amino)benzonitrile], in the series on HIV-1 (IIIB), the EC50 amounted to 6.2 ± 1.6 nM and the “SI (IIIB)” value is on record as more than 7477. In the series “in vitro”, this compound gave a CC50 of more than 46000 nM.

Consider `Cc1cc(-c2ccncc2)ccc1Oc1nc(Nc2ccc(C#N)cc2)ncc1Cl` [B14, 4-((5-Chloro-4-(2-methyl-4-(pyridin-4-yl)phenoxy)pyrimidin-2-yl)amino)benzonitrile], for which, in the series on HIV-1 (IIIB), the 50% effective concentration (EC50) stood at 48 ± 22 nM and the “SI (IIIB)” value is given as more than 1005. The same compound came in with a CC50 in “in vitro” of more than 48000 nM.

For the compound `COc1cc(-c2ccncc2)ccc1Oc1nc(Nc2ccc(C#N)cc2)ncc1Cl` [B15, 4-((5-Chloro-4-(2-methoxy-4-(pyridin-4-yl)phenoxy)pyrimidin-2-yl)amino)benzonitrile], in the series on HIV-1 (IIIB), the concentration for a half-maximal effect (EC50) was determined as 6.7 ± 2.3 nM and the “SI (IIIB)” value is more than 6897. Further, the CC50 in the series “in vitro” is more than 47000 nM.

In the case of `Cc1cc(-c2ccncc2)cc(C)c1Oc1nc(Nc2ccc(C#N)cc2)ncc1Cl` [B16, 4-((5-Chloro-4-(2,6-dimethyl-4-(pyridin-4-yl)phenoxy)pyrimidin-2-yl)amino)benzonitrile], in the series with HIV-1 (IIIB), it took 105 ± 51 nM to reach a half-maximal effect (EC50) and the “SI (IIIB)” value was determined as 2327. This compound also yielded a CC50 in “in vitro” of 243000 ± 62000 nM.

Consider `N#Cc1ccc(Nc2ncc(Cl)c(Nc3ccc(-c4ccncc4)cc3F)n2)cc1` [B17, 4-((5-Chloro-4-((2-fluoro-4-(pyridin-4-yl)phenyl)amino)pyrimidin-2-yl)amino)benzonitrile], for which, in the series with HIV-1 (IIIB), the EC50 was determined as 142 ± 14 nM and the “SI (IIIB)” value was more than 342. In “in vitro”, this compound registered a CC50 of more than 48000 nM.

On to `N#Cc1ccc(Nc2ncc(Cl)c(Nc3ccc(-c4ccncc4)cc3Cl)n2)cc1` [B18, 4-((5-Chloro-4-((2-chloro-4-(pyridin-4-yl)phenyl)amino)pyrimidin-2-yl)amino)benzonitrile], for which, in the series on HIV-1 (IIIB), the EC50 stood at 83 ± 69 nM and the “SI (IIIB)” value is given as more than 563. The CC50 in the series “in vitro” is more than 46000 nM.

Take `Cc1cc(-c2ccncc2)ccc1Nc1nc(Nc2ccc(C#N)cc2)ncc1Cl` [B19, 4-((5-Chloro-4-((2-methyl-4-(pyridin-4-yl)phenyl)amino)pyrimidin-2-yl)amino)benzonitrile]: in the series on HIV-1 (IIIB), the half-maximal effective concentration (EC50) was determined as 44 ± 9.7 nM and the “SI (IIIB)” value is reported as more than 1122. The compound further had a CC50 in the series “in vitro” of more than 48000 nM.

On to `COc1cc(-c2ccncc2)ccc1Nc1nc(Nc2ccc(C#N)cc2)ncc1Cl` [B20, 4-((5-Chloro-4-((2-methoxy-4-(pyridin-4-yl)phenyl)amino)pyrimidin-2-yl)amino)benzonitrile], for which, in the series with HIV-1 (IIIB), a half-maximal effect (EC50) was put at 536 ± 326 nM and the “SI (IIIB)” value is 306. The CC50 in “in vitro” came out at 164000 ± 51000 nM.

In the case of `N#Cc1ccc(Nc2ncc(Cl)c(Nc3c(F)cc(-c4ccncc4)cc3F)n2)cc1` [B21, 4-((5-Chloro-4-((2,6-difluoro-4-(pyridin-4-yl)phenyl)amino)pyrimidin-2-yl)amino)benzonitrile], in the series with HIV-1 (IIIB), the concentration for a half-maximal effect (EC50) was 2 ± 0.7 nM and the “SI (IIIB)” value is reported as 680. Moreover, in the series “in vitro”, the CC50 was determined as 1300 ± 300 nM.

For `Cc1cc(-c2ccncc2)cc(C)c1Nc1nc(Nc2ccc(C#N)cc2)ncc1Cl` [B22, 4-((5-Chloro-4-((2,6-dimethyl-4-(pyridin-4-yl)phenyl)amino)pyrimidin-2-yl)amino)benzonitrile], in the series on HIV-1 (IIIB), the concentration for a half-maximal effect (EC50) was 8.9 ± 0.7 nM and the “SI (IIIB)” value is on record as 29,634. Besides, the CC50 in “in vitro” amounted to 260000 ± 6500 nM.

The record behind these values is publication PMC12399242 (Acta Pharmaceutica Sinica. B, 2025).
